For six molecules, TGI results are on record in PubChem BioAssay (NCI).

Each structure is given as a SMILES string.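 Cells were grown in 96-well plates and exposed to each compound for 48 hours at five concentrations; endpoints were interpolated linearly between bracketing concentrations, or set to the highest concentration if not reached. TGI marks complete inhibition of growth.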

Among the test systems are SNB-78 CNS; XF 498 CNS; KM20L2 colon; P388/ADR leukemia; HOP-18 NSCLC; RXF-631 renal; LXFL 529 NSCLC.
Holding throughout (test): NCI tumour cell line growth inhibition, 48 h

For the molecule `NC1(C(=O)O)CCCC1`, the TGI is more than 444 µM in the experiment on SNB-78 CNS; 6.25 µM with XF 498 CNS; more than 625 µM with KM20L2 colon; more than 625 µM with P388/ADR leukemia; more than 625 µM in the experiment with HOP-18 NSCLC.
For `CCN(CC)CCCC(C)NC(=O)c1ccc2c(c1)C(=O)c1ccccc1C2=O` (stereo not given), the TGI with SNB-78 CNS is 47.4 µM; with RXF-631 renal, 65.5 µM; in the experiment on XF 498 CNS it was 21.3 µM; in the experiment with LXFL 529 NSCLC it was 66.9 µM; in the experiment on KM20L2 colon it was 51.9 µM; with HOP-18 NSCLC it was more than 100 µM.
For the molecule `O=C1c2ccccc2C(=O)c2c(O)ccc(O)c21`, the TGI in the experiment with SNB-78 CNS and with LXFL 529 NSCLC was more than 100 µM in each case.
Turning to `CCCCCCC(C)OC(=O)/C=C(\CC(=O)OC(C)CCCCCC)C(=O)OC(C)CCCCCC` (stereo not given), the TGI in the experiment with SNB-78 CNS, in the experiment on LXFL 529 NSCLC and in the experiment with KM20L2 colon was more than 100 µM each time.
Regarding `C=C1C(=O)O[C@@H]2[C@H](O)[C@@H](C)[C@@H]3C=CC(=O)[C@@]3(C)[C@H](OC(=O)C=C(C)C)[C@H]12`, the TGI worked out at 2.63 µM with XF 498 CNS, 5.12 µM with KM20L2 colon, 0.272 µM in the experiment with P388/ADR leukemia and 3.09 µM with HOP-18 NSCLC.
In the case of `CCCCCCCCCCCCCCCCCCOCC(COP(=O)([O-])OCC[N+](C)(C)C)OC` (stereo not given), the TGI with SNB-78 CNS was 49.2 µM; in the experiment on XF 498 CNS, 28.8 µM; in the experiment with KM20L2 colon, 9.02 µM; in the experiment on P388/ADR leukemia, 20 µM; with HOP-18 NSCLC it was 27.5 µM.
